Measurements as given in patent US20230123334A1, “AMINO LIPID COMPOUND, PREPARATION METHOD THEREFOR, AND APPLICATION THEREOF” (SHENZHEN SHENXIN BIOTECHNOLOGY CO., LTD., priority 2020, published 2023).

How the values were obtained:
HEK293 cells [1] = assay: Preliminary screening as DNA vectors, GFP transfection of HEK293 cells; type: cell-based; conditions: HEK293 cells; lipid/DOPE liposome with 75 ng plasmid DNA (psin-EGFP-IRES-Puro); number of cells expressing GFP divided by total number of nuclei (Hoechst)
Outline: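 First, amino lipid and DOPE were vortexed in sodium acetate buffer (pH 5.6) to form liposomes. Next, these were held with 75 ng EGFP plasmid at room temperature for 30 min. Finally, HEK293 cells were added, cultured at 37° C., Hoechst-stained, and GFP+/total nuclei scored by imaging.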

HEK293 cells [2] = assay: Preliminary screening as mRNA vectors, EGFP mRNA transfection of HEK293 cells; type: cell-based; conditions: HEK293 cells, 96-well plates, EGFP mRNA 50 ng per well; percentage of GFP fluorescent cells relative to total number of cells (Hoechst)
Outline: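 Screening format: EGFP mRNA transfection (50 ng/well) into HEK293 in 10% FBS-supplemented DMEM. Percent green fluorescent cells, normalised to Hoechst nuclear count, gave the value; Lipofectamine2000 was the reference transfectant.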

| Structure (SMILES) | Absolute DNA transfection efficiency in HEK293 cells (HEK293 cells [1]) | Absolute mRNA transfection efficiency in HEK293 cells (HEK293 cells [2]) |
| --- | --- | --- |
| CCCCCCCCCCCCCCCCCCNc1nc(NCCCCCCCCCCCCC)nc(NCCN2CCOCC2)n1 [Compound N13N18D2] | 0.2% | 0.0% |
| CCCCCCCCCCCCSc1nc(NCCN2CCN(C)CC2)nc(SCCCCCCCCCCCC)n1 [Compound S12S12D5] | 0.4% | 3.1% |
| CCCCCCCCCCCNc1nc(NCCCCCC)nc(NCCN2CCCCC2)n1 [Compound N6N11D4] | 0.0% | 0.0% |
| CCCCCCCCCCCCCCCCNc1nc(NCCN2CCN(C)CC2)nc(N(CCCCCCCCCCCC)CCCCCCCCCCCC)n1 [N16^2N12D5] | 0.6% | 0.0% |
| CCCCCCCCCCCNc1nc(NCCCCCCCCCCC)nc(NCC2CCN(C)CC2)n1 [Compound N11N11D10] | 0.5% | 1.2% |
| CCCCCCCCCCCCCCCNc1nc(NCCCCCC)nc(NCC2CCN(C)CC2)n1 [Compound N6N15D10] | 0.2% | 0.7% |
| CCCCCCCCCCCCCCCCCCNc1nc(NCCCCCCCCCCCCCCC)nc(NCCN2CCOCC2)n1 [Compound N15N18D2] | 0.0% | 0.0% |
| CCCCCCCCCCCCCCCSc1nc(NCCN2CCCCC2)nc(SCCCCCCCCCCC)n1 [Compound S11S15D4] | 5.3% | 0.9% |
| CCCCCCCCCCCCCCCCCCSc1nc(NCCN(CC)CC)nc(SCCCCCCCC)n1 [Compound S8S18D7] | 9.2% | 3.8% |
| CCCCCCCCCCCCCCCCCCNc1nc(NCCCN(C)C)nc(N(CCCCCCCCCCCC)CCCCCCCCCCCC)n1 [N18^2N12D6] | 1.3% | 2.1% |
| CCCCCCCCCCCCCCCNc1nc(NCCCCCCCCC)nc(NCCCN(C)C)n1 [Compound N9N15D6] | 0.0% | 1.7% |
| CCCCCCCCCCCCCCCCSc1nc(NCCN2CCOCC2)nc(SCCCCCCCCCCC)n1 [Compound S11S16D2] | 0.0% | 0.1% |
| CCCCCCCCCCCCCCCCCCNc1nc(NCCCCCC)nc(NCCN2CCOCC2)n1 [Compound N6N18D2] | 0.6% | 0.9% |
| CCCCCCCCCCCCCCCCCCSc1nc(NCCN2CCN(C)CC2)nc(SCCCCCCCCCCCCCCCCCC)n1 [Compound S18S18D5] | 0.1% | 0.1% |
| CCCCCCCCCCCCCCCCCCNc1nc(NCC2CCN(C)CC2)nc(N(CCCCCCCCCCCC)CCCCCCCCCCCC)n1 [N18^2N12D10] | 0.7% | 2.2% |
| CCCCCCCCCCCCCCSc1nc(NCCN2CCCCC2)nc(SCCCCCCCCCCCCCC)n1 [Compound S14S14D4] | 0.7% | 0.8% |
| CCCCCCCCCCCCCCSc1nc(NCCCN(C)C)nc(SCCCCCCCC)n1 [Compound S8S14D6] | 16.2% | 79.5% |
| CCCCCCCCCCCCCCSc1nc(NCCCN2CCN(C)CC2)nc(SCCCCCCCCCCCC)n1 [Compound S12S14D9] | 0.8% | 2.5% |

| Structure (SMILES) | Absolute DNA transfection efficiency in HEK293 cells (HEK293 cells [1]) | Absolute mRNA transfection efficiency in HEK293 cells (HEK293 cells [2]) |
| --- | --- | --- |
| CCCCCCCNc1nc(NCCCCCCC)nc(NCCCN2CCN(C)CC2)n1 [Compound N7N7D9] | 0.0% | 0.0% |
| CCCCCCCCCCCCNc1nc(NCCCCCCCCCCCC)nc(NCCN2CCN(C)CC2)n1 [Compound N12N12D5] | 0.4% | 0.8% |
| CCCCCCCCCCCCCNc1nc(NCCN(C)C)nc(N(CCCCCCCCCCCC)CCCCCCCCCCCC)n1 [N13^2N12D1] | 1.2% | 4.7% |
| CCCCCCCCCCCCCNc1nc(NCCCCCCCCCCC)nc(NCCN2CCN(C)CC2)n1 [Compound N11N13D5] | 0.1% | 0.2% |
| CCCCCCCCCCSc1nc(NCCN(CC)CC)nc(SCCCCCCCCCC)n1 [Compound S10S10D7] | 7.2% | 2.0% |
| CCCCCCCCCCCNc1nc(NCCCCCCC)nc(NCCCN2CCOCC2)n1 [Compound N7N11D8] | 0.0% | 0.0% |
| CCCCCCCCCCCCCCCSc1nc(NCCCN(C)C)nc(SCCCCCCCCCCCCCCC)n1 [Compound S15S15D6] | 0.4% | 0.9% |
| CCCCCCCCCCCCCCCCNc1nc(NCCCCCCCCC)nc(NCCN2CCCC2)n1 [Compound N9N16D3] | 2.2% | 4.3% |
| CCCCCCCCCCCCCCCCSc1nc(NCCN2CCCC2)nc(SCCCCCCCCCCCCCCCC)n1 [Compound S16S16D3] | 0.9% | 0.8% |
| CCCCCCCCCCCCCCCCCCNc1nc(NCCCCCCCCCCCCCCC)nc(NCCCN2CCOCC2)n1 [Compound N15N18D8] | 0.9% | 0.0% |
| CCCCCCNc1nc(NCCCCCC)nc(NCCN2CCOCC2)n1 [Compound N6N6D2] | 0.0% | 0.0% |
| CCCCCCCCCCCCCCCCSc1nc(NCCCN2CCOCC2)nc(SCCCCCCCCCCCC)n1 [Compound S12S16D8] | 0.2% | 0.0% |
| CCCCCCCCCCCCCCCCNc1nc(NCCN2CCOCC2)nc(N(CCCCCCCCCCCC)CCCCCCCCCCCC)n1 [N16^2N12D2] | 0.4% | 0.0% |
| CCCCCCCCCCSc1nc(NCC2CCN(C)CC2)nc(SCCCCCCCCCC)n1 [Compound S10S10D10] | 18.8% | 87.1% |
| CCCCCCCCCCCCCCCCNc1nc(NCCCCCCCCCCCCC)nc(NCCN2CCCC2)n1 [Compound N13N16D3] | 0.4% | 1.6% |
| CCCCCCCCCCCCCCCSc1nc(NCCCN2CCN(C)CC2)nc(SCCCCCCCCCCC)n1 [Compound S11S15D9] | 1.8% | 3.6% |
| CCCCCCCCCCCCCCCCSc1nc(NCCN2CCOCC2)nc(SCCCCCCCC)n1 [Compound S8S16D2] | 15.7% | 0.2% |
| CCCCCCCCCCCCCCCCNc1nc(NCCCCCCCCCCC)nc(NCCCN(C)C)n1 [Compound N11N16D6] | 0.2% | 1.4% |
